Test results as given in ChEMBL document CHEMBL1151743, “Dual inhibitors of matrix metalloproteinases and carbonic anhydrases: iminodiacetyl-based hydroxamate-benzenesulfonamide conjugates” (J Med Chem, 2008).

Experiments:
Interstitial collagenase = target: T1, Interstitial collagenase (Homo sapiens, UniProt P03956); test: Inhibition of MMP1
T1 sequence (P03956 whole entry): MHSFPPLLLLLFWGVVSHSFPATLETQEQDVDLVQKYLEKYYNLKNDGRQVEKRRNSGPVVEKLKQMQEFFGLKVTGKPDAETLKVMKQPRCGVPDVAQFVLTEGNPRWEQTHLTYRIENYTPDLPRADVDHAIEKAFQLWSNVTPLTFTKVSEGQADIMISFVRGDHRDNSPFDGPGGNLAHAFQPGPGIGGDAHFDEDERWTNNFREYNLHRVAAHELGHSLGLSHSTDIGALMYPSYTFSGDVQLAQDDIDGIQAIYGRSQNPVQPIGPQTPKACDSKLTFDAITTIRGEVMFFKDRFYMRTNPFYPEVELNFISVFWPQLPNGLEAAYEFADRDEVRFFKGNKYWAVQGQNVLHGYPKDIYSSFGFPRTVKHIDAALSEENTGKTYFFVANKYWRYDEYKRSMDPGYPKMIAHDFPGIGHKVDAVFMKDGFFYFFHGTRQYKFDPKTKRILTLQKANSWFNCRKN

[1] = target: 72 kDa type IV collagenase (Homo sapiens, UniProt P08253); test: Inhibition of human recombinant MMP2 transfected in mouse melanoma cells; type: cell-based
Sequence of 72 kDa type IV collagenase (P08253 whole entry): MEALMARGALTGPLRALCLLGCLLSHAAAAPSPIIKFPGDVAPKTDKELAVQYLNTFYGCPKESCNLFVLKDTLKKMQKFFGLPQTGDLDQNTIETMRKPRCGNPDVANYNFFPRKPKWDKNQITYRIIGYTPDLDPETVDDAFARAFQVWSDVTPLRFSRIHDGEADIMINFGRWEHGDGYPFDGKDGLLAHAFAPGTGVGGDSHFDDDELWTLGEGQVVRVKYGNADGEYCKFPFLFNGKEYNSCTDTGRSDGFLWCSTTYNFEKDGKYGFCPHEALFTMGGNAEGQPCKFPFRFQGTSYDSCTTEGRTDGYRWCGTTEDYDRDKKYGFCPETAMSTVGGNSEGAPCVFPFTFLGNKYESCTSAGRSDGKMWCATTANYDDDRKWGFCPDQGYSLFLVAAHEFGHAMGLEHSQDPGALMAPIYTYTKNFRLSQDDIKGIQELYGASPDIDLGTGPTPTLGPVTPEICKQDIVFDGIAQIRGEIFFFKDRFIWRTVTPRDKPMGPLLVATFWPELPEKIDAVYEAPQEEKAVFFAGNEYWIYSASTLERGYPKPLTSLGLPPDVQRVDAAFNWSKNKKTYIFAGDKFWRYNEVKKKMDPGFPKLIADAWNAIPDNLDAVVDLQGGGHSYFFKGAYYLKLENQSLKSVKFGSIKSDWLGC

Neutrophil collagenase = Neutrophil collagenase (Homo sapiens, UniProt P22894); test: Inhibition of MMP8
Sequence of Neutrophil collagenase (P22894 whole entry): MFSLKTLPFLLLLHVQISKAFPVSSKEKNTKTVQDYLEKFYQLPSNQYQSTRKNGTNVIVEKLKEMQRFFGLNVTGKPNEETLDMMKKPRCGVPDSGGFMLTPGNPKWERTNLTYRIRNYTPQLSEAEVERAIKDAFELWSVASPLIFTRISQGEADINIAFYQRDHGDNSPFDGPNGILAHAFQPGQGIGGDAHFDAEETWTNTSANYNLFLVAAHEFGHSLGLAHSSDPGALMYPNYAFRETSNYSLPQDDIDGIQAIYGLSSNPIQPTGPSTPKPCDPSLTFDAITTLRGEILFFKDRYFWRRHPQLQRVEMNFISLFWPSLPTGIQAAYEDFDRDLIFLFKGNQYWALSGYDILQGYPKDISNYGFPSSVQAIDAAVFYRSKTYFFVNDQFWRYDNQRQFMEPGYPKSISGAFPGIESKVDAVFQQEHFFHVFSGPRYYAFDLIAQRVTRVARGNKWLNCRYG

[2] = target: Matrix metalloproteinase-9 (Homo sapiens, UniProt P14780); test: Inhibition of MMP9
Sequence of Matrix metalloproteinase-9 (P14780 whole entry): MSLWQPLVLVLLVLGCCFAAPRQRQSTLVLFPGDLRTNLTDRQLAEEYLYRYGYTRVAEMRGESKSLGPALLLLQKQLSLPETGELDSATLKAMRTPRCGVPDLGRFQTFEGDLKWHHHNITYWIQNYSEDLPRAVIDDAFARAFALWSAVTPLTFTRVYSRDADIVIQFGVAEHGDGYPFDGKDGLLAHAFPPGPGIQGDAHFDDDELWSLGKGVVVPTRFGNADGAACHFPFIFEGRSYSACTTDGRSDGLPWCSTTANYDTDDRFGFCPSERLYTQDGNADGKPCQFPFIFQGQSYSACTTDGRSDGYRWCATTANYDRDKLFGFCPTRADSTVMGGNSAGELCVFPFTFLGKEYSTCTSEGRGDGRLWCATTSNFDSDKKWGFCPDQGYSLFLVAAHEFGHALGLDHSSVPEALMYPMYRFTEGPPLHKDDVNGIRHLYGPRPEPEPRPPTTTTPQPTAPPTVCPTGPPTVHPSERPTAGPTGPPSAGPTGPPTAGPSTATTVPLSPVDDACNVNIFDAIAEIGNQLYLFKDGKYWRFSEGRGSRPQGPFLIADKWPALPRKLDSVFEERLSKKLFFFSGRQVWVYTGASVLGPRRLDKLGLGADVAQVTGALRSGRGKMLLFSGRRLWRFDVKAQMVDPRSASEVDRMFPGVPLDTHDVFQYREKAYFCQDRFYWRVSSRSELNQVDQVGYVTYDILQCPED

[3] = target: Matrix metalloproteinase-14 (Homo sapiens, UniProt P50281); test: Inhibition of MMP14
[4] = target: Matrix metalloproteinase-16 (Homo sapiens, UniProt P51512); test: Inhibition of MMP16
Sequence of Matrix metalloproteinase-16 (P51512 whole entry, the tested form may be a part): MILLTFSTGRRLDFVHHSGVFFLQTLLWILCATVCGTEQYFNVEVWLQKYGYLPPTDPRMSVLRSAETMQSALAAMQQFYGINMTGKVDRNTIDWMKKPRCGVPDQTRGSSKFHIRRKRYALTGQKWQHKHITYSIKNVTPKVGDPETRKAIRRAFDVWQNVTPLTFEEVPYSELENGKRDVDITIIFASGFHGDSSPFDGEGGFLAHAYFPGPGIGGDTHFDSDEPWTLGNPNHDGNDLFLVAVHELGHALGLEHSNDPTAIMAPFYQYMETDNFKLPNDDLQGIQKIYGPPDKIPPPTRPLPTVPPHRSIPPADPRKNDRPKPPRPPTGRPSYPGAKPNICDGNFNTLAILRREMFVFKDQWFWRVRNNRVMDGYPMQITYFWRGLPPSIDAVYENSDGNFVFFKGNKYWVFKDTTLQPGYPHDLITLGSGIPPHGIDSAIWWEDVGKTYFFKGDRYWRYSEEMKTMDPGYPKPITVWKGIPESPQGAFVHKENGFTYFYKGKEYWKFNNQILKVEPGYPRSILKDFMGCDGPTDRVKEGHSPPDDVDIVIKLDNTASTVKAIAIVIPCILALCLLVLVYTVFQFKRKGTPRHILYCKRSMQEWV

Carbonic anhydrase 9 = Carbonic anhydrase 9 (Homo sapiens, UniProt Q16790); test: Inhibition of human recombinant CA9 catalytic domain by stopped-flow CO2 hydrase assay
Carbonic anhydrase 1 = Carbonic anhydrase 1 (Homo sapiens, UniProt P00915)
Sequence of Carbonic anhydrase 1 (P00915 whole entry): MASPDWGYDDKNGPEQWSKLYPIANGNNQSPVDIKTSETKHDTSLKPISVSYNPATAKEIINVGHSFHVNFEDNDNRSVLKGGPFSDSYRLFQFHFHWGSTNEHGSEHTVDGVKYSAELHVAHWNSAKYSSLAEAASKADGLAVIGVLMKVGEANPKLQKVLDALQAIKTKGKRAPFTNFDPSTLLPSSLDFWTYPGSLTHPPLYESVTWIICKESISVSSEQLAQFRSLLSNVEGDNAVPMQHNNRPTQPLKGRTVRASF
Description: Inhibition of human recombinant CA1 by stopped-flow CO2 hydrase assay

Homo sapiens [5] = species on record: Homo sapiens; test: Selectivity for human recombinant CA9 to human recombinant CA1
Homo sapiens [6] = species on record: Homo sapiens; test: Selectivity for human recombinant CA9 to human recombinant CA2
[7] = target: Disintegrin and metalloproteinase domain-containing protein 17 (Homo sapiens, UniProt P78536); test: Inhibition of TACE
Sequence of Disintegrin and metalloproteinase domain-containing protein 17 (P78536 whole entry, the tested form may be a part): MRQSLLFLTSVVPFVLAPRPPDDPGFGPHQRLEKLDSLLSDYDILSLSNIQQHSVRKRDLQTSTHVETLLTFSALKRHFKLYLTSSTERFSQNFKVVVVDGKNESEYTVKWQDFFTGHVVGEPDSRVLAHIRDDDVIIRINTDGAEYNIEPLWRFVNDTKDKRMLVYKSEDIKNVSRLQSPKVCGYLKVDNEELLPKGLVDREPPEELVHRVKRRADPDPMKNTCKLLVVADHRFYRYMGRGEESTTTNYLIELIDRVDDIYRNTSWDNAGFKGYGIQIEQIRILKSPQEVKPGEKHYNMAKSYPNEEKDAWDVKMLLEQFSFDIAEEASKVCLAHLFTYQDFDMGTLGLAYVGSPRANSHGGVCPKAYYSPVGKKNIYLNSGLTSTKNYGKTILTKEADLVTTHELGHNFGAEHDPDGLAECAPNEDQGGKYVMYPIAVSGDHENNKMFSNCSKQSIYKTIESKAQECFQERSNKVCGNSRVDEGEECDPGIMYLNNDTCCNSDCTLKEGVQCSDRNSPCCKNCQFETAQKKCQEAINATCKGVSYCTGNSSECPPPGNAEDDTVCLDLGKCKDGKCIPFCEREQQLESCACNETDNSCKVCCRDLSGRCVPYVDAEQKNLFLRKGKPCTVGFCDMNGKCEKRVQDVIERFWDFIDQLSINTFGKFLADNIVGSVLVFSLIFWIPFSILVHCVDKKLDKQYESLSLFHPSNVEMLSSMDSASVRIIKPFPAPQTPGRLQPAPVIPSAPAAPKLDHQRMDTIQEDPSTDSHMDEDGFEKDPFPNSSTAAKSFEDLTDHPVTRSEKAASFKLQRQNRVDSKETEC

Collagenase 3 = Collagenase 3 (Homo sapiens, UniProt P45452)
Carbonic anhydrase 2 = Carbonic anhydrase 2 (Homo sapiens, UniProt P00918)
Description: Inhibition of human recombinant CA2 by stopped-flow CO2 hydrase assay

| IC50 (Interstitial collagenase) | IC50 [1] | IC50 (Neutrophil collagenase) | IC50 [2] | IC50 [3] | IC50 [4] | Ki (Carbonic anhydrase 9) | Ki (Carbonic anhydrase 1) | Selectivity ratio (Homo sapiens [5]) | Selectivity ratio (Homo sapiens [6]) | IC50 [7] | IC50 (Collagenase 3) | Ki (Carbonic anhydrase 2) | SMILES |
| --- | --- | --- | --- | --- | --- | --- | --- | --- | --- | --- | --- | --- | --- |
|  | 5120 nM | 8200 nM |  | 33900 nM |  | 3.8 nM | 116 nM |  |  |  |  |  | NS(=O)(=O)c1ccc(CCNC(=O)CN(CC(=O)O)S(=O)(=O)c2ccc(-c3ccccc3)cc2)cc1 |
| 542 nM | 16.2 nM | 35 nM | 66 nM | 260 nM | 186 nM |  |  |  |  |  |  |  | NS(=O)(=O)c1ccc(CCNC(=O)CN(CC(=O)NO)S(=O)(=O)c2ccc(-c3ccccc3)cc2)cc1 |
|  | > 100000 nM |  | > 300000 nM | > 100000 nM |  |  | 2340 nM |  |  |  |  |  | NS(=O)(=O)c1ccc(CCNC(=O)CN(CC(=O)NO)Cc2ccccc2)cc1 |
| 143 nM | 1.57 nM | 0.74 nM | 0.51 nM | 2.1 nM | 1 nM |  |  |  |  |  |  |  | NS(=O)(=O)c1ccc(CCNC(=O)CN(CC(=O)NO)S(=O)(=O)c2ccc(Oc3ccccc3)cc2)cc1 |
|  | 2230 nM | 4360 nM |  | 8950 nM |  | 6.4 nM | 3430 nM |  |  |  |  |  | NS(=O)(=O)c1ccc(CCNC(=O)CN(CC(=O)O)S(=O)(=O)c2ccc(Oc3ccccc3)cc2)cc1 |
| 532 nM | 25.3 nM | 59 nM | 53.7 nM | 89.8 nM | 44 nM | 13 nM | 1770 nM |  |  |  |  |  | COc1ccc(S(=O)(=O)N(CC(=O)NO)CC(=O)NCCc2ccc(S(N)(=O)=O)cc2)cc1 |
| 7.8 nM | 0.35 nM | 0.29 nM | 0.21 nM | 0.32 nM | 0.31 nM | 3.3 nM | 730 nM |  | 1.3 | 55 nM | 0.12 nM | 4.2 nM | CC(C)[C@H](C(=O)NO)N(CC(=O)NCCc1ccc(S(N)(=O)=O)cc1)S(=O)(=O)c1ccc(Oc2ccccc2)cc1 |

Second part, the compound before the results:

| SMILES | IC50 (Interstitial collagenase) | IC50 [1] | IC50 (Neutrophil collagenase) | IC50 [2] | IC50 [3] | IC50 [4] | Ki (Carbonic anhydrase 9) | Ki (Carbonic anhydrase 1) | Selectivity ratio (Homo sapiens [5]) | Selectivity ratio (Homo sapiens [6]) | IC50 [7] | IC50 (Collagenase 3) | Ki (Carbonic anhydrase 2) |
| --- | --- | --- | --- | --- | --- | --- | --- | --- | --- | --- | --- | --- | --- |
| COc1ccc(S(=O)(=O)N(CC(=O)O)CC(=O)NO)cc1 | 6770 nM | 193 nM | 1010 nM | 322 nM | 1690 nM | 996 nM |  |  |  |  |  |  |  |
| CC(C)[C@H](C(=O)NO)N(CC(=O)O)S(=O)(=O)c1ccc(-c2ccccc2)cc1 | 236 nM | 24.7 nM | 4.3 nM | 27.7 nM | 306 nM |  |  |  | 7.9 | 1.3 |  |  |  |
| CC(C)[C@H](C(=O)NO)N(CC(=O)O)S(=O)(=O)c1ccc(Oc2ccccc2)cc1 | 59 nM | 0.5 nM | 0.4 nM | 0.77 nM | 3.9 nM | 1.56 nM |  |  | 7.9 | 1.3 | 2290 nM | 0.33 nM |  |
| COc1ccc(S(=O)(=O)N(Cc2cccnc2)[C@@H](C(=O)NO)C(C)C)cc1 [CGS-27023A] |  |  |  |  |  | 6.8 nM |  |  |  |  |  |  |  |
| COc1ccc(S(=O)(=O)N(CC(=O)O)[C@@H](C(=O)NO)C(C)C)cc1 | 235 nM | 145 nM | 29.2 nM | 62 nM | 353 nM |  |  |  | 7.9 | 1.3 |  |  |  |
| O=C(O)CN(CC(=O)NO)S(=O)(=O)c1ccc(Oc2ccccc2)cc1 | 1530 nM | 1.2 nM | 3.7 nM | 3.2 nM | 14 nM | 11.4 nM |  |  | 7.9 | 1.3 |  | 1.6 nM |  |
